Results on three molecules are retold here after PubChem BioAssay AID1963438 (Molecular Pharmacology Branch, DTP, NCI, 2024).

The assay deals with NCI-H510 multicellular tumor spheroid growth, % test/control. Description: Anticancer human tumor NCI-H510 cell line growth inhibition [Asc].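 On all read-outs here: spheroids exposed to agents for 7 days.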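 On viability, T/C: 100% = DMSO vehicle control wells.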 The conditions noted are these: for viability, T/C: stronger effect = lower value. In short, it runs like this:
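Tumor cells were grown as complex spheroids with human endothelial cells (HUVEC) and human mesenchymal stem cells as stroma. Agents were tested alone and in combination, in half-log steps down from the clinical Cmax, or from 10 microM where Cmax was unknown.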

Several values for one entry are separate records, joined by “and”; a condition that tells them apart may be missing. Equal values may be shown once.

Turning to `CCN1C(C(=O)NC23CCC(C(=O)O)(CC2)CC3)C(c2cccc(Cl)c2F)C2(C(=O)Nc3cc(Cl)ccc32)C12CCCCC2` (centres undefined) + Cc1c(S(C)(=O)=O)c(-c2cc(F)cc(N3CCN(c4ccc(NS(=O)(=O)c5ccc(NC(CCN6CCC(C(=O)OCCCP(=O)(O)O)CC6)CSc6ccccc6)c(S(=O)(=O)C(F)(F)F)c5)cc4)CC3)c2)c(-c2ccc(Cl)cc2)n1C(C)C, the IC50 (curve of first compound, second compound 0.1 µM) is > 3 µM; the IC50 (curve of first compound, second compound 0.316 µM) was > 3 µM; the IC50 (curve of first compound, second compound 1 µM) was > 3 µM; the IC50 (curve of first compound, second compound 3.16 µM) is > 3 µM; the IC50 (curve of first compound, second compound 10 µM) is > 3 µM. The viability, T/C runs as follows: (second compound 0.1 µM, first compound 0.00949 µM) 101%; (second compound 0.1 µM, first compound 0.03 µM) 97.6%; (second compound 0.1 µM, first compound 0.0949 µM) 95.5%; (second compound 0.1 µM, first compound 0.3 µM) 96.3%; (second compound 0.1 µM, first compound 0.949 µM) 80.3%; (second compound 0.1 µM, first compound 3 µM) 104%. Also, the viability, T/C runs as follows: (second compound 0.316 µM, first compound 0.00949 µM) 86.3%; (second compound 0.316 µM, first compound 0.03 µM) 105%; (second compound 0.316 µM, first compound 0.0949 µM) 94.8%; (second compound 0.316 µM, first compound 0.3 µM) 94.9%; (second compound 0.316 µM, first compound 0.949 µM) 88.9%; (second compound 0.316 µM, first compound 3 µM) 83.6%. The viability, T/C reads like this: (second compound 1 µM, first compound 0.00949 µM) 103%; (second compound 1 µM, first compound 0.03 µM) 82%; (second compound 1 µM, first compound 0.0949 µM) 104%; (second compound 1 µM, first compound 0.3 µM) 99.5%; (second compound 1 µM, first compound 0.949 µM) 103%; (second compound 1 µM, first compound 3 µM) 95%. For the same molecule, the viability, T/C (second compound 3.16 µM, first compound 0.00949 µM) is 88.7%; the viability, T/C (second compound 3.16 µM, first compound 0.03 µM) is 103%; the viability, T/C (second compound 3.16 µM, first compound 0.0949 µM) was 96.4%; the viability, T/C (second compound 3.16 µM, first compound 0.3 µM) is 114%; the viability, T/C (second compound 3.16 µM, first compound 0.949 µM) is 68%; the viability, T/C (second compound 3.16 µM, first compound 3 µM) is 85.1%. The viability, T/C (second compound 10 µM, first compound 0.00949 µM) is 109%; the viability, T/C (second compound 10 µM, first compound 0.03 µM) was 84%; the viability, T/C (second compound 10 µM, first compound 0.0949 µM) was 87.3%; the viability, T/C (second compound 10 µM, first compound 0.3 µM) is 59.1%; the viability, T/C (second compound 10 µM, first compound 0.949 µM) was 72.8%; the viability, T/C (second compound 10 µM, first compound 3 µM) was 56.3%.
Regarding `NC(=O)C(=Cn1cnc(-c2cc(C(F)(F)F)cc(C(F)(F)F)c2)n1)c1cncnc1`, the viability, T/C is, setting by setting: (compound 0.000949 µM) 91.3% and 79.1% and 81.8%; (compound 0.003 µM) 95.1% and 92.5% and 90.3%; (compound 0.00949 µM) 97.5% and 68.2% and 97.9%; (compound 0.03 µM) 87.7% and 81.1% and 98%; (compound 0.0949 µM) 76% and 44% and 86.5%; (compound 0.3 µM) 14.6% and 47% and 69.7%. Also, where the note is “curve of compound”, the IC50 is 0.154 µM and 0.0817 µM and > 0.3 µM.
Take `CNC(C)C(=O)NC1CN(S(=O)(=O)c2cccc(S(=O)(=O)N3CCC4CCC(C(=O)NC(c5ccccc5)c5ccccc5)N4C(=O)C(NC(=O)C(C)NC)C3)c2)CCC2CCC(C(=O)NC(c3ccccc3)c3ccccc3)N2C1=O` (centres undefined): the viability, T/C is 103% and 100% and 104% (compound 0.00316 µM); 106% [middle of 14 runs] (compound 0.01 µM); 102% [middle of 14 runs] (compound 0.0316 µM); 103% [middle of 14 runs] (compound 0.1 µM). Also, the IC50 is, setting by setting: (compound alone, run of 10/24/2022) > 1 µM; (compound alone, run of 11/15/2022) > 1 µM; (curve of compound) > 1 µM.
